Source: patent publication US5523320A, “N-methyldeacetylcolchiceinamide derivatives” (Ohgen Research Laboratories, Ltd., priority 1993, dated 1996)
In brackets after ≈: the same amount, converted by molar mass. Several values for one entry are separate records, joined by “and”; a condition that tells them apart may be missing. Equal values may be shown once.

Experiments:
[1] = test system: adriamycin-resistant mouse leukemic cells P388/ADR; experiment: In vitro cancer cell proliferation inhibition (Trypan Blue living cell count, 2 days culture); type: cell-based; details: three separate experiments
Procedure: (§1) Test example 1: In vitro cancer cell proliferation inhibiting text
(§2) Mouse leukemic cells p388/S and adriamycin-resistant mouse leukemic cells P388/ADR subculturally transplanted in the abdominal cavity of mice were taken out together with the asites therefrom, respectively, and after washing, suspended in RPMI 1640 media (each containing 10% fetal bovine serum and 10 μM 2-mercaptoethanol) to 2×10^5 cells/ml, respectively. 0.5 vol. % each of test solutions (solutions of the compound of the later-described in Example 1 in dimethylsulfoxide) were added to portions of each of these cell suspensions, respectively; and the mixtures were separately put into a 24-well culture plate and subjected to culture for 2 days in a 5% carbon dioxide culturing vessel. A 0.5% Trypan Blue solution was added to each of the cell culture broths in the same amount, and the 50% proliferation inhibitory concentration (IC50) of the compound of Example 1 was determined by counting the number of the cells not stained as living cells under a microscope.

[2] = test system: mouse leukemic cells P388/S; experiment: as above; type: cell-based; details: three separate experiments
Procedure: as §1, §2

CDF male mice = experiment: Acute toxicity test (intraperitoneal, 10 days observation); type: in vivo, mouse; details: i.p.
From the text: Test example 2: Acute toxicity test

cancer cells = details: literature; cited from earlier work
[3] = literature / background; cited from earlier work

Row | Compound | IC50 ([1]; Mus musculus, P388/ADR, 48 h, read-out: Cytotoxicity IC50 (50% proliferation inhibitory concentration)) [ng/mL] | Cytotoxicity IC50 (50% proliferation inhibitory concentration) ([1]; 2880 min) | IC50 ([2]; Mus musculus, 48 h, read-out: Cytotoxicity IC50 (50% proliferation inhibitory concentration)) [ng/mL] | Cytotoxicity IC50 (50% proliferation inhibitory concentration) ([2]; 2880 min) | acute toxicity symptoms: diarrhea or constipation (CDF male mice; groups of high dose) | acute toxicity symptoms: lie of hair (CDF male mice; on and after one day after administration) | acute toxicity symptoms: walking problems and paralysis (CDF male mice; survival cases in the 47 mg/kg administration group) | body weight change (CDF male mice; up to 2 to 4 days after administration and thereafter) | pharmacological actions on cancer cells (cancer cells) | toxicity [3]
1 | CNc1ccc2c(cc1=O)C(NC(=O)C1COC(C)(C)O1)CCc1cc(OC)c(OC)c(OC)c1-2 (stereo not shown) [Example 1, N-(O,O-isopropylideneglyceroyl)-N-methyldeacetylcolchiceinamide] | 9.2 (≈ 0.019 µM) | 11.0 ng/mL and 11.1 ng/mL | 3.2 (≈ 0.0066 µM) | 4.2 ng/mL and 4.6 ng/mL | cases where diarrhea or constipation arose were observed | the lie of hair got worse | walking problems as in the right leg and paralysis of one side of the body | tended to decrease up to 2 to 4 days after administration, but thereafter increased gradually |  | 
2 | COc1cc2c(c(OC)c1OC)-c1ccc(OC)c(=O)cc1C(NC(C)=O)CC2 (stereo not shown) [colchicine] |  |  |  |  |  |  |  |  | has pharmacological actions on cancer cells, gout, etc. | strong toxicity
